In article PMC7215373, “Design, Synthesis, and Anticancer Evaluation of Novel Indole Derivatives of Ursolic Acid as Potential Topoisomerase II Inhibitors” (International Journal of Molecular Sciences, 2020):

Assays:
SMMC-7721 cells = test: MTT cytotoxicity assay, SMMC-7721; assay type: cell-based, human; conditions: 48 h exposure
Method: (§1) The in vitro cytotoxic activities of synthesized compounds were evaluated against two human hepatocarcinoma cell lines (SMMC-7721 and HepG2) and the human normal hepatocyte cell line (LO2) via MTT assay. All tested compounds were dissolved in DMSO and the stock solutions were diluted by DMEM medium before treatment of the cultured cells. […] Cell lines were obtained from American Tissue Culture Collection (ATCC). Briefly, different tumor cells were grown in DMEM medium supplemented with 10% fetal bovine serum, penicillin (100 U/mL), and streptomycin (50 μg/mL). Cells were harvested at log phase of growth and seeded in 96-well plates (100 μL/well at a density of 2 × 10^5 cells/mL). After 24 h incubation at 37 °C and 5% CO2 to allow cell attachment, cultures were exposed to various concentrations of the isolated compounds for 48 h. Finally, MTT solution (2.5 mg/mL in PBS) was added (40 μL/well). Plates were further incubated for 4 h at 37 °C, and the formazan crystals formed were dissolved by adding 150 μL/well of DMSO. Absorption at 570 nm was measured with an ELISA plate reader. […] Doxorubicin, camptothecin, and etoposide (VP-16) were co-assayed as positive controls.

HepG2 cells = test: MTT cytotoxicity assay, HepG2; assay type: cell-based, human; conditions: 48 h exposure
Method: as §1

LO2 cells = test: MTT cytotoxicity assay, normal hepatocyte LO2; assay type: cell-based; conditions: Homo sapiens, L02, 48 h exposure, normal hepatocyte cell line
Method: as §1

DNA topoisomerase I = target: T1, DNA topoisomerase I (Bos taurus, UniProt F1MN93); test: Topoisomerase I relaxation assay (supercoiled pBR322); assay type: biochemical; conditions: for inhibition at 20 µM: 20 μM compound, read-out: Topo I Inhibition (%) 20 μM; for inhibition at 100 µM: 100 μM compound, read-out: Topo I Inhibition (%) 100 μM
T1 construct: purchased TaKaRa, Kyoto, Japan
T1 sequence (F1MN93 1-767): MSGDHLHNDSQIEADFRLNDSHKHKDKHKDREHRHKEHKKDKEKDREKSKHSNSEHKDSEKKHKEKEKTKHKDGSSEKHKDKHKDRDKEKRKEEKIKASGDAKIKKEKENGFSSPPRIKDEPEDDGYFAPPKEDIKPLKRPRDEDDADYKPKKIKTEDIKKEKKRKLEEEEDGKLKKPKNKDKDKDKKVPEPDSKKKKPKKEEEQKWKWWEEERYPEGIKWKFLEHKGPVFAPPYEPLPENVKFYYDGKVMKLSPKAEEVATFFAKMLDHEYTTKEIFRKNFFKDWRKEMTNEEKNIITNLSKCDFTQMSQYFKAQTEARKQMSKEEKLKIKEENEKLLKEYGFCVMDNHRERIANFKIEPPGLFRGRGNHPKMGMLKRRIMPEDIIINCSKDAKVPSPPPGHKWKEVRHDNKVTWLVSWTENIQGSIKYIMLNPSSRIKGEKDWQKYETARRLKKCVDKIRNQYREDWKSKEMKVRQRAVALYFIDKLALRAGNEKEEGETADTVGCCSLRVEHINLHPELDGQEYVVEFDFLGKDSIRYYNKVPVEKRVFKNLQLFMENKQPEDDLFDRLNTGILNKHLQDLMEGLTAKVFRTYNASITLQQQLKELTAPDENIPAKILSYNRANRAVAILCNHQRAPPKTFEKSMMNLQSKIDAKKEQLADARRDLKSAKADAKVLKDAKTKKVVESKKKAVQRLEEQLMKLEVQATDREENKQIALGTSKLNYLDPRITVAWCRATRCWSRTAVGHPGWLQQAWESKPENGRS
Method: The effect of the tested compounds on Topo I and II activities were evaluated by Topo I/II relaxation assays. The reaction products, relaxed DNA could be distinguished from supercoiled DNA by gel electrophoresis and visualized using gel imaging system. The activity of DNA topoisomerase I (TaKaRa, Kyoto, Japan) was determined by measuring the relaxation of supercoiled DNA pBR322 [32]. Camptothecin was used as a positive control. The reaction mixture was prepared according to the manufacture's protocol, and incubated at 37 °C for 30 min. The reactions were terminated by adding dye solution containing 1% SDS, 0.02% bromophenol blue and 50% glycerol. The mixtures were applied to 1% agarose gel and subjected to electrophoresis for 1 h, in 1× TAE buffer (40 mM Tris-acetate, 1 mM EDTA). Gels were stained for 30 min in 60 mL 1× TAE buffer with ethidium bromide (0.5 μg/mL). DNA bands were visualized by transillumination with UV light and then photographed by a Gel Doc XR+ System (BIO-RAD, Hercules, CA, USA).

Human Topoisomerase IIα = target: T2, Human Topoisomerase IIα (Homo sapiens, UniProt P11388); test: Topoisomerase II relaxation assay (supercoiled pBR322); assay type: biochemical; conditions: for inhibition at 20 µM: 20 μM compound, read-out: Topo II Inhibition (%) 20 μM; for inhibition at 100 µM: 100 μM compound, read-out: Topo II Inhibition (%) 100 μM
T2 construct: purchased USB, Affymetrix, Waltham, MA, USA
Method: The effect of the tested compounds on Topo I and II activities were evaluated by Topo I/II relaxation assays. The reaction products, relaxed DNA could be distinguished from supercoiled DNA by gel electrophoresis and visualized using gel imaging system. Human Topoisomerase IIα activity was detected by measuring the relaxation of supercoiled pBR322 plasmid DNA [22]. […] For inhibition studies, the compounds were pre-incubated with human Topo IIα and DNA for 15 min. Compounds were used at the appropriate concentrations by dissolving in 2% (v/v) DMSO. DMSO didn't show detrimental effect on the enzyme activity at concentration up to 2% (v/v). Reaction mixture was incubated at 37 °C for 30 min and stopped by the addition of 7 mM EDTA. Reaction product was mixed with DNA loading dye and electrophoresed on 1% TAE-Agarose. The gel was stained with ethidium bromide (0.5 μg/mL) for 30 min, destained twice in 1× TAE buffer, and then visualized using a BIO-RAD Gel Doc XR+ System. Etoposide (VP-16) was co-assayed as a positive control.

T2 sequence (P11388 whole entry): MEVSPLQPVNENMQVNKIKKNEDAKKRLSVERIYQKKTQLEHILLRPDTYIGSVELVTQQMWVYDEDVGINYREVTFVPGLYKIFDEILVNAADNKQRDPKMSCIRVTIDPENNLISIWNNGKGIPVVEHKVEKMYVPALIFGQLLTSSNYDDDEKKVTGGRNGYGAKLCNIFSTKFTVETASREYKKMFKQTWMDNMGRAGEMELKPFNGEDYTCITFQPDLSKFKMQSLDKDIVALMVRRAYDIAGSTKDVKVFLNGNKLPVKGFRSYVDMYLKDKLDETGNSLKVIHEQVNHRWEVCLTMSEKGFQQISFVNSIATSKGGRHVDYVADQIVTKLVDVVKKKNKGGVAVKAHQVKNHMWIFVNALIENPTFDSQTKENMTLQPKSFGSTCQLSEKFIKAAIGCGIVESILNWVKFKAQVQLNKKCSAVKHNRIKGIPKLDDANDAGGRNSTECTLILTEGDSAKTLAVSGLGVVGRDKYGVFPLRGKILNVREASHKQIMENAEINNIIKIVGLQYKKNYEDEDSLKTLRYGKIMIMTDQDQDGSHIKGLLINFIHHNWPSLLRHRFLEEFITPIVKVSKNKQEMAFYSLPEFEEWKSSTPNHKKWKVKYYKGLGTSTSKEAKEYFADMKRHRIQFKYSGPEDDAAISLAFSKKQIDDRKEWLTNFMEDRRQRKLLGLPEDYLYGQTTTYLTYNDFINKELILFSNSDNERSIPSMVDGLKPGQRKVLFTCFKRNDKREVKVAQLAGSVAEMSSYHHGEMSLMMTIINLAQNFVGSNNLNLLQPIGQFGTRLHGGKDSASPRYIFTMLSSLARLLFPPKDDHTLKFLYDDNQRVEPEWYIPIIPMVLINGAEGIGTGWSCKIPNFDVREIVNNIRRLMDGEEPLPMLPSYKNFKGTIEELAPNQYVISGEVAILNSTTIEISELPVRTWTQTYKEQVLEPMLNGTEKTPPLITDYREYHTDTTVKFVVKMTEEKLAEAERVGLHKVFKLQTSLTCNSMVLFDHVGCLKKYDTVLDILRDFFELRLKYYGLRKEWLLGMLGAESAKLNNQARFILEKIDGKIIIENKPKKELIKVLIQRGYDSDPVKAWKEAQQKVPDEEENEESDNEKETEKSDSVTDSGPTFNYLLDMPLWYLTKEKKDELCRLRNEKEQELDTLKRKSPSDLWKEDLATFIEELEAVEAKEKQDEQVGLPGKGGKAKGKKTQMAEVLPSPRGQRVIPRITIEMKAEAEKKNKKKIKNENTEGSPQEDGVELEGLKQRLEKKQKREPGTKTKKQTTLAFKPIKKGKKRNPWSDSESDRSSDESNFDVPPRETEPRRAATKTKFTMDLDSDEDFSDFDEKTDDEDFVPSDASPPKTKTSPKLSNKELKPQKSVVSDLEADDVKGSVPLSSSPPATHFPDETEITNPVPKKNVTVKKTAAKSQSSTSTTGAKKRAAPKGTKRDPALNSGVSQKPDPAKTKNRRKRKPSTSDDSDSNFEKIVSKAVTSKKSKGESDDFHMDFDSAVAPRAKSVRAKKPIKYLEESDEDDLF

Compound | IC50 (SMMC-7721 cells; Homo sapiens, SMMC-7721, 48 h) [µM] | IC50 (HepG2 cells; Homo sapiens, HepG2, 48 h) [µM] | IC50 (LO2 cells) [µM] | inhibition at 20 µM (DNA topoisomerase I) [%] | inhibition at 100 µM (DNA topoisomerase I) [%] | inhibition at 20 µM (Human Topoisomerase IIα) [%] | inhibition at 100 µM (Human Topoisomerase IIα) [%] | melting point [°C] | IC50 (SMMC-7721 cells) [µM] | IC50 (HepG2 cells) [µM]
Cc1ccc2[nH]c3c(c2c1)C[C@@]1(C)C(CC[C@]2(C)C1CC=C1C4[C@@H](C)[C@H](C)CC[C@]4(C(=O)NCCN)CC[C@]12C)C3(C)C (stereo partly shown) [4a, N-(2-Aminoethyl)-5′-methyl-1′H-ursa-2,12-dieno[3,2-b]indol-28-carboxamide] | 3.5 ± 0.61 | 3.31 ± 0.35 | 29.6 ± 2.12 | 5.6 | 15.1 | 25.9 | 69.7 | 228 to 230 | – | –
Cc1ccc2[nH]c3c(c2c1)C[C@@]1(C)C(CC[C@]2(C)C1CC=C1C4[C@@H](C)[C@H](C)CC[C@]4(C(=O)NCCN(C)C)CC[C@]12C)C3(C)C (stereo partly shown) [4b, N-(2-(Dimethylamino)ethyl)-5′-methyl-1′H-ursa-2,12-dieno[3,2-b]indol-28-carboxamide] | 4.42 ± 0.71 | 4.11 ± 0.55 | 31.1 ± 2.63 | – | 3.7 | 36.9 | 68 | 166 to 168 | – | –
CCN(CC)CCNC(=O)[C@]12CC[C@@H](C)[C@H](C)C1C1=CCC3[C@@]4(C)Cc5c([nH]c6ccc(C)cc56)C(C)(C)C4CC[C@@]3(C)[C@]1(C)CC2 (stereo partly shown) [4c, N-(2-(Diethylamino)ethyl)-5′-methyl-1′H-ursa-2,12-dieno[3,2-b]indol-28-carboxamide] | 2.1 ± 0.21 | 2.24 ± 0.32 | 26.4 ± 1.32 | – | 0 | 38.3 | 68.7 | – | – | –
Cc1ccc2[nH]c3c(c2c1)C[C@@]1(C)C(CC[C@]2(C)C1CC=C1C4[C@@H](C)[C@H](C)CC[C@]4(C(=O)NCCN4CCCCC4)CC[C@]12C)C3(C)C (stereo partly shown) [4d, N-(2-(Piperidin-1-yl)ethyl)-5′-methyl-1′H-ursa-2,12-dieno[3,2-b]indol-28-carboxamide] | ~1 | ~1 | 16 ± 1.07 | 0 | 13 | 32.7 | 71.7 | 195 to 197 | 1.75 ± 0.11 | 1.47 ± 0.12
Cc1ccc2[nH]c3c(c2c1)C[C@@]1(C)C(CC[C@]2(C)C1CC=C1C4[C@@H](C)[C@H](C)CC[C@]4(C(=O)NCCCCN4CCOCC4)CC[C@]12C)C3(C)C (stereo partly shown) [6e, N-(4-Morpholinobutyl)-5′-methyl-1′H-ursa-2,12-dieno[3,2-b]indol-28-carboxamide] | 4.55 ± 1.56 | 7.84 ± 2.31 | 35.4 ± 3.13 | – | 0 | 28.2 | 65.6 | – | – | –
Cc1ccc2[nH]c3c(c2c1)C[C@@]1(C)C(CC[C@]2(C)C1CC=C1C4[C@@H](C)[C@H](C)CC[C@]4(C(=O)NCCCCN4CCN(C)CC4)CC[C@]12C)C3(C)C (stereo partly shown) [6f, N-(4-(4-Methylpiperazin-1-yl)butyl)-5′-methyl-1′H-ursa-2,12-dieno[3,2-b]indol-28-carboxamide] | ~1 | ~1 | 13.7 ± 1.28 | – | 0 | 39.8 | 81.8 | – | 0.65 ± 0.07 | 1.01 ± 0.12
CC[C@@]1(O)C(=O)OCc2c1cc1n(c2=O)Cc2cc3ccccc3nc2-1 [CPT, camptothecin, reference compound] | 0.56 ± 0.18 | 1.12 ± 0.26 | 8.93 ± 0.52 | 38.2 | 75.1 | – | – | – | – | –
COc1cccc2c1C(=O)c1c(O)c3c(c(O)c1C2=O)C[C@@](O)(C(=O)CO)C[C@@H]3O[C@H]1C[C@H](N)[C@H](O)[C@H](C)O1 [DOX, doxorubicin, reference compound] | 0.68 ± 0.11 | 0.81 ± 0.19 | 5.32 ± 0.67 | – | – | – | – | – | – | –
COc1cc([C@@H]2c3cc4c(cc3[C@@H](O[C@@H]3O[C@@H]5CO[C@@H](C)O[C@H]5[C@H](O)[C@H]3O)[C@H]3COC(=O)[C@H]23)OCO4)cc(OC)c1O [VP-16, etoposide, reference compound] | 0.36 ± 0.1 | 0.57 ± 0.16 | 5.92 ± 0.29 | – | – | 47.8 | 88.5 | – | – | –
